In ChEMBL document CHEMBL1201862, “PubChem BioAssay data set” (2004):
Calls of active or inactive are those of the source. Cut-off read from the data, not from the text of the source, for most assays here: actives have a measured EC50 and inactives only a lower limit.

Columns and labels:
[1] = Luminescence Cell-Based Dose Confirmation HTS to Identify Activators of 5'UTR Stem-Loop Driven Alpha-Synuclein mRNA Translation in H4 Neuroglioblastoma Cells. [Related pubchem assays: 1829 (Project Summary), 1814 (Primary HTS)]; format: functional
H4 = assay: Luminescence Cell-Based Dose Response HTS to Identify Activators of 5'UTR Stem-Loop Driven Prion Protein mRNA Translation in H4 Neuroglioblastoma Cells. [Related pubchem assays: 1829 (Project Summary), 1814 (Primary HTS)]; format: functional; settings: Homo sapiens
[2] = Luminescence Cell-Based Dose Response HTS to Identify Activators of Luciferase Translation or Activity in H4 […] Cells. [Related pubchem assays: 1829 (Project Summary), 1814 (Primary HTS)]; format: functional
Streptokinase A = target: T1, Streptokinase A (Streptococcus pyogenes serotype M1, UniProt P10520); assay: viability-normalized secreted streptokinase activity reduction – plasminogen activation absorbance, OD405, dose response (AID 1914); format: functional, Streptococcus pyogenes M1 GAS;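 note: secreted streptokinase activity via plasminogen activation per viability signal from cell pellet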
T1 sequence (P10520 whole entry): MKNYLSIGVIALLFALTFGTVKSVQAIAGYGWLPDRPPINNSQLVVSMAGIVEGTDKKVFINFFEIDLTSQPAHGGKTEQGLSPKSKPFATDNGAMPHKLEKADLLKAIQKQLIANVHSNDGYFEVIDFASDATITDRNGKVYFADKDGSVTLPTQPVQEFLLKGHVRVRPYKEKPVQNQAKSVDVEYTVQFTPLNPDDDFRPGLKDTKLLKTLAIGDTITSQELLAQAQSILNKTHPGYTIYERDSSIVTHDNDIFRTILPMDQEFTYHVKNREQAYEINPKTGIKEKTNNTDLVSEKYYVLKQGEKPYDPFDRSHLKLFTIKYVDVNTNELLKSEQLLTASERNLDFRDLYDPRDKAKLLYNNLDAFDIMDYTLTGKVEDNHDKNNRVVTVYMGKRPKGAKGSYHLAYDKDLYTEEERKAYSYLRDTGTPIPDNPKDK

[3] = tested on: Streptococcus sp. 'group A'; assay: Streptococcus pyogenes SK(-)GAS viability under kanamycin – luminescence, BacTiterGlo, confirmation, counter-screen for streptokinase expression inhibitor project, dose response (AID 1900); format: functional, organism-based
Streptococcus = assay: GAS UMAA2166 growth inhibition – luminescence, BacTiterGlo, counter-screen for streptokinase expression inhibitor project, dose response (AID 1915); format: functional, organism-based;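 note: potency for reduction of bacterial viability or growth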
[4] = NIH-3T3 fibroblast cytotoxicity, dose response, cytotoxicity control, cell-based, fluorescence, Alamar Blue, secondary assay (AID 2327); format: functional;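 note: NIH-3T3 mouse fibroblasts cultured with fluconazole at 8 µg/mL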
Paired box protein Pax-8 = Paired box protein Pax-8 (Homo sapiens, UniProt Q06710); assay: PAX8 transcriptional activity inhibition in RMG-I – RMG-I cells, luciferase, cherry-pick, dose response (AID 687027); format: functional, cell-based;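 note: luciferase reporter driven by Pax8 target thyroperoxidase promoter measured by SteadyGlo luminescence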
Cytochrome P450 2C9 = Cytochrome P450 2C9 (Homo sapiens, UniProt P11712)
Cytochrome P450 2D6 = Cytochrome P450 2D6 (Homo sapiens, UniProt P10635);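 note: CYP2D6 member of a cytochrome P450 panel assay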
Cytochrome P450 1A2 = target: T2, Cytochrome P450 1A2 (Homo sapiens, UniProt P05177);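 note: PubChem cytochrome P450 panel assay, CYP1A2 panel member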
T2 sequence (P05177 whole entry): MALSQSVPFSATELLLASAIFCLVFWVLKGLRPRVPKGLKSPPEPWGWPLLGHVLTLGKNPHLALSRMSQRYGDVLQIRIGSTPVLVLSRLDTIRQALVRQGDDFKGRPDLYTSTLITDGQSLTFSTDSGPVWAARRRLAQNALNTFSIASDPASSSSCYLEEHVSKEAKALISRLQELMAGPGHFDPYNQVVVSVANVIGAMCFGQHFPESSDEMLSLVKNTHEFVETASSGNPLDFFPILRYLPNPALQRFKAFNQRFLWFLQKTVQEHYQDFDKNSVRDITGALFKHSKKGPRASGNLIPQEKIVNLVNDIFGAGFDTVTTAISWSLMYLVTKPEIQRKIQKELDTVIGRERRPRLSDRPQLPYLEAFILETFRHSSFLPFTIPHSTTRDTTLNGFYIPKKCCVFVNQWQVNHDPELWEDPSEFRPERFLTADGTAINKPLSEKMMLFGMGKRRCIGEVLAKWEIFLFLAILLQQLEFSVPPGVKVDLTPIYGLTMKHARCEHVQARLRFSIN

[5] = target: T3, Heat shock factor protein 1 (Mus musculus, UniProt P38532); assay: decrease of HSF1-responsive luciferase luminescence – cell-based, NIH3T3, dose retest, confirmation (AID 2382); format: functional;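 note: NIH3T3 fibroblasts with HSF1-driven luciferase reporter stressed by proteasome inhibitor MG132; luminescence from HSF1-driven luciferase expression after 8 hours of MG132 stress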
T3 sequence (P38532 whole entry): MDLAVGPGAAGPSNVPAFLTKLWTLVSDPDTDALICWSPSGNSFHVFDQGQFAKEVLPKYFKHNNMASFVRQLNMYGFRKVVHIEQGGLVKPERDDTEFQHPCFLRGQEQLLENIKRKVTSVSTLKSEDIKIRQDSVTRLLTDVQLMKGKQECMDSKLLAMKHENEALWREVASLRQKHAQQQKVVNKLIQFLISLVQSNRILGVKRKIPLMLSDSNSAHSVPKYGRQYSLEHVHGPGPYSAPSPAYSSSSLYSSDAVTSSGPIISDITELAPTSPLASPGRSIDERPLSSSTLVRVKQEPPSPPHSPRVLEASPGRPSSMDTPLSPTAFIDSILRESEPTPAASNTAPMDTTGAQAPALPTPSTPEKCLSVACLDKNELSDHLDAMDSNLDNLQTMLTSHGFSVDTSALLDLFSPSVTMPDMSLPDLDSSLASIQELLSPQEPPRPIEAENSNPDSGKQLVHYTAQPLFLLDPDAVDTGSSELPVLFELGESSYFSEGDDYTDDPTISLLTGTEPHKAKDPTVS

[6] = fluconazole-exposed Candida albicans growth modulators – fluorescence, retest, confirmation (AID 2467); format: functional, cell-based
[7] = alpha-synuclein stem-loop luciferase translation blockers – H4 neuroglioma cells, luminescence, confirmation (AID 1988); format: functional, cell-based
[8] = Luminescence Cell-Based Dose Response HTS to Identify Inhibitors of 5'UTR Stem-Loop Driven Prion Protein mRNA Translation in H4 Neuroglioblastoma Cells. [Related pubchem assays: 1827 (Project Summary), 1813 (Primary HTS)]; format: functional
[9] = viability of uninfected HEp-2 cells – cell-based, HTS, cytotoxicity control for RSV inhibitor project, dose response (AID 2410); format: functional; settings: human respiratory syncytial virus
[10] = luciferase reporter signal suppression in cells – H4 neuroglioma cells, luminescence, dose response (AID 1990); format: functional, cell-based
Protein skinhead-1 = target: T4, Protein skinhead-1 (Caenorhabditis elegans, UniProt P34707); format: functional
T4 sequence (P34707 whole entry): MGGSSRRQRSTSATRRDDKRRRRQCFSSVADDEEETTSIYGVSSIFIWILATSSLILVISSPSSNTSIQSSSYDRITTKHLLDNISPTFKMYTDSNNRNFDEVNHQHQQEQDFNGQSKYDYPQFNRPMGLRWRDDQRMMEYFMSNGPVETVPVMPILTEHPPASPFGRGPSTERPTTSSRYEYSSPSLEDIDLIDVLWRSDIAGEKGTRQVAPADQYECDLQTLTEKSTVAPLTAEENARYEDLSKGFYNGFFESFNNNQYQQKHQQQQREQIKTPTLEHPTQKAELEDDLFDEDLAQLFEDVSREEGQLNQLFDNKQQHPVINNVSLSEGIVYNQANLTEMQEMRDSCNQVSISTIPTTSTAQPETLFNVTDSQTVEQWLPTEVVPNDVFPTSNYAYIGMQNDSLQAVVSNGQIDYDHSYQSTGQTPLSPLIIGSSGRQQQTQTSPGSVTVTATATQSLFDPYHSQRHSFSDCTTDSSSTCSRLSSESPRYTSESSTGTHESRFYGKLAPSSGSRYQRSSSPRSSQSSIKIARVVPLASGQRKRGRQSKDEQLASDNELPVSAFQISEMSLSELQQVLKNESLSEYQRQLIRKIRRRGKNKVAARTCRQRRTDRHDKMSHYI

Paired box protein Pax-8, sequence (Q06710 whole entry): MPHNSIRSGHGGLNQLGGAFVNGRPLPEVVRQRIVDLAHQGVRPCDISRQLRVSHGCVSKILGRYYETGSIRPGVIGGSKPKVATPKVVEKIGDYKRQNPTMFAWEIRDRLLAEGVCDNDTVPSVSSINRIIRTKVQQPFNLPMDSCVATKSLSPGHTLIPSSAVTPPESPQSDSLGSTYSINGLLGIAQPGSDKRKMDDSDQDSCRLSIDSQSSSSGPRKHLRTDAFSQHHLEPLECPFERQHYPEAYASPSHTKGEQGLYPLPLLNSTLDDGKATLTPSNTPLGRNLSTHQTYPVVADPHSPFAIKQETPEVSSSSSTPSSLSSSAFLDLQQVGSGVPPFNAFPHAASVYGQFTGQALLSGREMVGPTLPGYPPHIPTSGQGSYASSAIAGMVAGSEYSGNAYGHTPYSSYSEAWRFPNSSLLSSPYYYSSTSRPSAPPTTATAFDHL
Cytochrome P450 2D6, sequence (P10635 whole entry): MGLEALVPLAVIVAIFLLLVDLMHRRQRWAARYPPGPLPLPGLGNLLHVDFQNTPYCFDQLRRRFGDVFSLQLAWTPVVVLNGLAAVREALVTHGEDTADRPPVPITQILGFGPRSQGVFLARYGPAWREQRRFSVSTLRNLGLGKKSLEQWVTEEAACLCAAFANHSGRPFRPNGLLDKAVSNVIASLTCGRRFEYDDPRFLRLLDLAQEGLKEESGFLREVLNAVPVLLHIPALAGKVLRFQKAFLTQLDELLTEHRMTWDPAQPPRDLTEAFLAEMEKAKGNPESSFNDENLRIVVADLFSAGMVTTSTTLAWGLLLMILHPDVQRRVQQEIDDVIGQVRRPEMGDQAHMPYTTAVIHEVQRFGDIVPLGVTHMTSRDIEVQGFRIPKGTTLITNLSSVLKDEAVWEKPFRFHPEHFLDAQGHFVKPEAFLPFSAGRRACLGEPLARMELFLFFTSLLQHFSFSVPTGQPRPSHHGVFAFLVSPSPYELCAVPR
Cytochrome P450 2C9, sequence (P11712 whole entry): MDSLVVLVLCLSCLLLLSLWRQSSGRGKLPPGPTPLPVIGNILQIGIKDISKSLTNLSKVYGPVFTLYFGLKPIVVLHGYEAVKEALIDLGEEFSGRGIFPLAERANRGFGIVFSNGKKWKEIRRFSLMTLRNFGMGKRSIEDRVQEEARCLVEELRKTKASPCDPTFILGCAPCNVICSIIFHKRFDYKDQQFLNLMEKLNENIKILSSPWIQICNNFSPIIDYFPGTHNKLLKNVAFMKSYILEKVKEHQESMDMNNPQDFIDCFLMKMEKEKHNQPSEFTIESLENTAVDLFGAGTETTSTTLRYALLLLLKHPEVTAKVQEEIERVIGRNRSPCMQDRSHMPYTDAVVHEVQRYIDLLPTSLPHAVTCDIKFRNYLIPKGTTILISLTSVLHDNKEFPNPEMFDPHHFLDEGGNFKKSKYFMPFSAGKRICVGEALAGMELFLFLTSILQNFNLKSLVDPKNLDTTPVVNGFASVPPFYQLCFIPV

Cn1ccnc1CN1CCCCC1C(=O)Nc1ccc(Oc2cccnc2)cc1 (stereo not drawn)
EC50 [1]: > 120 µM (not active) | EC50 (H4): > 120 µM (not active) | EC50 [2]: > 120 µM (not active)

COc1ccc(/C=C/C(=O)NC(=S)N2CCN(c3ccccc3OC)CC2)cc1
EC50 [1]: 1.67 µM (active) | EC50 (Streptokinase A): > 150 µM (not active) | EC50 [3]: > 150 µM (not active) | EC50 (H4): 7.91 µM (active) | EC50 (Streptococcus): > 150 µM (not active) | EC50 [2]: > 120 µM (not active)

CCOC(=O)c1cc2c(=O)n3ccccc3nc2n(CCOC)/c1=N\C(=O)c1ccncc1
EC50 [4]: 115 µM (active)

N#Cc1ccc2nc(-c3ccc(CN4CCC(n5c(O)nc6ccccc65)CC4)cc3)c(-c3ccccc3)nc2c1
AC50 (Paired box protein Pax-8): 8.95 µM (active)

N=C(c1ccc2ccccc2c1)c1ccccc1Cc1ccccc1
AC50 (Cytochrome P450 2C9): 7.94 µM (inconclusive) | AC50 (Cytochrome P450 2D6): 3.16 µM (inconclusive) | AC50 (Cytochrome P450 1A2): 0.501 µM (inconclusive)

COCCC/N=C(\c1ccco1)n1c(=S)nc(-c2ccco2)n(CCCOC)c1=S
EC50 [1]: 11.9 µM (active) | EC50 (H4): > 120 µM (not active) | EC50 [2]: 11.6 µM (active)

CCCCCCN(C(=O)CCCN1C(=O)NC(c2ccc(-c3ccccc3)cc2)C(C(=O)OCc2ccccc2)=C1C)C(C)C(=O)NCCCC (stereo not drawn)
AC50 (Paired box protein Pax-8): 12.2 µM (active)

OCCN(Cc1ccccc1)Cc1cccc(Cl)c1Cl
EC50 [5]: > 195 µM (not active) | AC50 (Cytochrome P450 2D6): 1.58 µM (inconclusive)

C[C@@H]1CCCCO[C@@H](CN(C)Cc2ccc(Cl)c(Cl)c2)[C@H](C)CN([C@H](C)CO)C(=O)c2cc(NC(=O)Nc3ccc(C(F)(F)F)cc3)ccc2O1
AC50 (Paired box protein Pax-8): 2.39 µM (active)

O=C(c1ccccc1)N1CCN2C(=O)c3ccccc3C12c1ccc(Cl)cc1 (stereo not drawn)
EC50 [1]: > 120 µM (not active) | EC50 (H4): 15.4 µM (active) | EC50 [2]: 34.9 µM (active)

CCOC(=O)c1cccnc1SCC(=O)NC(C)CC (stereo not drawn)
EC50 (Streptokinase A): > 150 µM (not active) | EC50 [3]: > 150 µM (not active) | EC50 (Streptococcus): > 150 µM (not active)

NNC(=O)c1ccc(OCC2CC(c3ccc(Cl)cc3)=NO2)cc1 (stereo not drawn)
EC50 (Streptokinase A): > 150 µM (not active) | EC50 [3]: > 150 µM (not active) | EC50 (Streptococcus): > 150 µM (not active)

C/C(=N\NC(=O)c1cc2ccccc2cc1O)c1ccc2c(c1)OCO2
EC50 (Streptokinase A): 6.65 µM (active) | EC50 [3]: 3.73 µM (active) | EC50 (Streptococcus): 21.9 µM (active)

Cc1ccc(S(=O)(=O)N/N=C2/CC(c3ccccc3)Oc3ccccc32)cc1[N+](=O)[O-] (stereo not drawn)
EC50 [1]: 15.9 µM (active) | EC50 (H4): 13.8 µM (active) | EC50 [2]: > 120 µM (not active)

COc1ccc(C(=O)C2CCCN(Cc3cccn3-c3ccccn3)C2)c(C)c1 (stereo not drawn)
EC50 [4]: > 160 µM (inactive) | EC50 [6]: 0.706 µM (active)

N#Cc1cc2cc3c(cc2nc1SCC(=O)N1CCOCC1)OCCO3
EC50 [7]: 5.54 µM (active) | EC50 [8]: > 120 µM (not active)

N=C(N)NC(=O)c1nc(Cl)c(N2CCCCCC2)nc1N [N,N-HEXAMETHYLENEAMILORIDE]
AC50 (Cytochrome P450 2D6): 39.8 µM (inconclusive) | CC50 [9]: 10.5 µM (active)

Cc1nn(-c2ccccc2)c(Cl)c1/C=N\NC(=O)c1cnccn1
EC50 [1]: 23.6 µM (active) | EC50 (H4): 15.3 µM (active) | EC50 [2]: 14 µM (active)

Nc1n[nH]c(SCc2cccc(Br)c2)n1
EC50 [7]: > 120 µM (not active) | EC50 [8]: > 120 µM (not active) | EC50 [10]: > 120 µM (not active)

C=CCSc1ncc(-c2ccccc2)cn1
EC50 [1]: 25.3 µM (active) | IC50 (Protein skinhead-1): 11.4 µM (active) | EC50 (H4): 24.5 µM (active) | EC50 [2]: 16 µM (active)

COc1ccc(C(=O)Nc2ccc(-c3cn4ccsc4n3)cc2)cc1S(=O)(=O)N1CCOCC1
EC50 [7]: 60.6 µM (active) | EC50 [8]: > 120 µM (not active) | EC50 [10]: > 120 µM (not active)

CC(C)OC(=O)c1cccnc1N1CCN(c2cccc(Cl)c2)CC1
EC50 (Streptokinase A): 19.3 µM (active) | EC50 [3]: 20.3 µM (active) | EC50 (Streptococcus): > 150 µM (not active)

Cc1[nH]c2ccccc2c1C(=O)/C=C/c1ccccc1Cl
EC50 [1]: 7.39 µM (active) | EC50 (H4): 10.1 µM (active)

COc1ccc(/C=C/C(=O)NC(=S)NNC(=O)Cc2cccs2)cc1
EC50 (Streptokinase A): > 150 µM (not active) | EC50 [3]: 2.45 µM (active) | EC50 (Streptococcus): 20.9 µM (active)

Clc1ccccc1CNc1nc2ccccc2n2cnnc12
EC50 [7]: 35.8 µM (active) | EC50 [8]: > 120 µM (not active) | EC50 [10]: 14.2 µM (active)

Cc1ccc(S(=O)(=O)N(C)C[C@H]2Oc3ccc(NC(=O)Cc4ccccc4)cc3C(=O)N([C@H](C)CO)C[C@@H]2C)cc1
AC50 (Paired box protein Pax-8): 29.8 µM (active)

O=C(COc1ccc(Cl)cc1)NC1CCSC1=O (stereo not drawn)
EC50 [4]: > 160 µM (inactive)

CC(/C=C1\SC(=O)N(CC(=O)Nc2ccc(O)cc2)C1=O)=C\c1ccccc1
EC50 (Streptokinase A): > 150 µM (not active) | EC50 [3]: 13.8 µM (active) | EC50 (Streptococcus): 31.1 µM (active) | AC50 (Paired box protein Pax-8): 64.3 µM (active)

C[C@@H]1CCCCO[C@H](CN(C)Cc2ccccc2)[C@H](C)CN([C@H](C)CO)C(=O)c2cc(NC(=O)Nc3ccc(C(F)(F)F)cc3)ccc2O1
AC50 (Paired box protein Pax-8): 5.05 µM (active)
